The text below walks through data of patent publication US9657360B2, “Detection of viral infection” (priority 2011, dated 2017).

The test system of data set [1] is Hendra virus. Format: cell-based.
Data set [2] relates to HeLa cells.

Residues, ends and D or L forms follow the SMILES beside them. *: point of attachment. Cbz = O=C(OCc1ccccc1)*

Turning to `Cc1ccc(S(=O)(=O)/C=C/C#N)cc1` [Bay11-7082], the “Hendra virus replication (HeV titres)” value in data set [1] is recorded as “reduced (not significantly)”. In addition, the HeLa cell viability entry in data set [2] is listed as “not adversely impacting HeLa cell viability”.

For `CC(C)C[C@@H](C=O)NC(=O)[C@H](CC(C)C)NC(=O)[C@H](CC(C)C)NC(=O)OCc1ccccc1` [MG-132] (Cbz-Leu-Leu-Leu-aldehyde), the “Hendra virus replication (HeV titres)” value in data set [1] was “significantly reduced”. Moreover, the HeLa cell viability result in data set [2] is listed as “not adversely impacting HeLa cell viability”.
